The values that follow come from patent US12435087B2, “Modulators of DCN-1 and methods of use thereof” (Cellarity, Inc., priority 2023, dated 2025).

DCN1 protein, sequence (Q96GG9 whole entry): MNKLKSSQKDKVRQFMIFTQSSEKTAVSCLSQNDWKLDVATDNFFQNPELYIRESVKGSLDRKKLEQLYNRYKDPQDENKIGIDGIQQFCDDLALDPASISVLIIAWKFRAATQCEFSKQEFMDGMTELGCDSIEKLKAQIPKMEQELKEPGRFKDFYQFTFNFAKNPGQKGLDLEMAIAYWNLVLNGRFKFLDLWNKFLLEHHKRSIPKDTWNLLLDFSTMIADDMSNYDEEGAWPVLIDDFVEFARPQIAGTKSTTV

This assay concerns the target DCN1 protein (Homo sapiens (Human), UniProt Q96GG9). Description: Intact protein MS analysis with the RapidFire-TOF system (covalent adduct formation). It is filed as binding. Conditions: 400 nM DCN1, incubated at room temperature for 3 hours. As to the method: (§1) DCN1 protein, His-TEV-DCN1, were expressed in E. Coli. The His-tagged protein was first purified with an Ni-NTA column. The His-tag was cleaved using His-tag TEV protease and the His-tags were removed using a second Ni-NTA column. Protein purity was verified with SDS-PAGE and intact MS. DCN1 was dissolved in a buffer containing 25 mM Tris-HCl, 200 mM NaCl, and 1 mM DTT at 400 nM. 11 concentrations of compounds were added to the DCN1 solution and incubated at room temperature for 3 hours, unless otherwise specified. The reaction plates were quenched by adding 0.2% formic acid. Quenched assay plates were analyzed with an Agilent RapidFire 360 system connected to an Agilent 6545 Q-TOF mass spectrometer equipped with an AJS source. 10 μL of sample volume was loaded onto a custom packed cartridge (4 μL, PLRP-S 30 μm/1000 Å pore; Optimize Technologies) with loading buffer (ddH2O with 0.09% (vol/vol) formic acid and 0.01% (vol/vol) trifluoroacetic acid; 1.25 ml/min) for 6 seconds before being eluted directly into the mass spectrometer in elution buffer (80% acetonitrile with 0.09% (vol/vol) formic acid and 0.01% (vol/vol) trifluoroacetic acid; 0.5 ml/min) for 7 seconds. The cartridge was re-equilibrated with loading buffer for 1 second before collection of the next sample. The Q-TOF was operated in TOF-only positive ionization mode set to the following parameters: Gas Temp=350 C, Drying Gas=7 l/min, Nebulizer=50 psi, Sheath Gas Temp=400 C, Sheath Gas Flow=12 l/min, VCap=4000 V, Nozzle Voltage=1000 V, Fragmentor=125 V, Skimmer=65 V and Oct 1 RF Vpp=750V. Raw MS data files were deconvoluted and analyzed using the Agilent MassHunter Bioconfirm software package to identify both parent protein and expected compound adduct mass signatures.
An MS assay was performed to evaluate the ability of the compounds to covalently modify DCN-1.
as §1, with “Vcap=4000” for “VCap=4000”
For `CCN1C(=O)[C@H](NC(=O)c2cccc(C(F)(F)F)c2)[C@@H](c2ccccc2NC(=O)C(F)Cl)c2cnn(-c3ccccc3)c21` (mixture of isomers) [Compound I-174], the Emax fell in the range of 0 to 30%.

Turning to `CCN1C(=O)[C@H](NC(=O)c2cccc(C(F)(F)F)c2)[C@@H](c2cccc(NC(=O)[C@H](C)Br)c2)c2c(C)nn(-c3ccccc3)c21` (mixture of isomers) [Compound I-180], the Emax lay within 80 to 100%.

On to `CCN1C(=O)[C@H](NC(=O)c2cccc(C(F)(F)F)c2)[C@@H](c2ccccc2NC(=O)[C@H](C)Cl)c2c(C)nn(-c3ccccc3)c21` (mixture of isomers) [Compound I-181], for which the “% Adduct Formation (MS Emax)” value is “++ (MS Emax % adduct formation greater than 30.0 and less than or equal to 80.0)”.

As for `CCN1C(=O)[C@H](NC(=O)c2cccc(C(F)(F)F)c2)[C@@H](c2ccccc2NC(=O)[C@H](C)Cl)c2c(C)nn(-c3ccccc3)c21` (mixture of isomers) [Compound I-182], the “% Adduct Formation (MS Emax)” value was “+ (MS Emax % adduct formation greater than or equal to 0.0 and less than or equal to 30.0)”.

With `CCN1C(=O)[C@H](NC(=O)c2cccc(C(F)(F)F)c2)[C@@H](c2ccccc2NC(=O)[C@@H](C)Cl)c2cnn(-c3ccccc3)c21` (mixture of isomers) [Compound I-185], the Emax is 0 to 30%.

The molecule `CCN1C(=O)[C@@H](NC(=O)c2cccc(C(F)(F)F)c2)[C@@H](c2cccc(NC(=O)[C@H](C)Br)c2)c2c(C)nn(-c3ccccc3)c21` (mixture of isomers) [Compound I-204] came in with an Emax of 0 to 30%.

`C=CS(=O)(=O)Nc1cccc([C@H]2c3c(C)nn(-c4ccccc4)c3N(CC)C(=O)[C@@H]2NC(=O)c2cccc(C(F)(F)F)c2)c1` (racemic) [Compound I-5] came in with a maximal effect (Emax) of 80 to 100%.

The molecule `C/C=C/C(=O)Nc1cccc([C@H]2c3c(C)nn(-c4ccccc4)c3N(CC)C(=O)[C@@H]2NC(=O)c2cccc(C(F)(F)F)c2)c1` (racemic) [Compound I-164] registered an Emax of 0 to 30%.

Regarding `C=C(C)C(=O)Nc1ccccc1[C@H]1c2c(C)nn(-c3ccccc3)c2N(CC)C(=O)[C@@H]1NC(=O)c1cccc(C(F)(F)F)c1` (racemic) [Compound I-165], the maximal effect (Emax) lay within 0 to 30%.

Molecule `C=CS(=O)(=O)Nc1ccccc1[C@H]1c2cnn(-c3ccccc3)c2N(CC)C(=O)[C@@H]1NC(=O)c1cccc(C(F)(F)F)c1` (racemic) [Compound I-166] had an Emax of 80 to 100%.

`CCN1C(=O)[C@H](NC(=O)c2cccc(C(F)(F)F)c2)[C@@H](c2ccccc2NC(=O)/C=C/C(=O)OC)c2cnn(-c3ccccc3)c21` (racemic) [Compound I-167] returned a maximum response (Emax) of 80 to 100%.

With `CCN1C(=O)[C@H](NC(=O)c2cccc(C(F)(F)F)c2)[C@@H](c2ccccc2NC(=O)/C=C/C(F)(F)F)c2cnn(-c3ccccc3)c21` (racemic) [Compound I-168], the Emax was 0 to 30%.

With `CCN1C(=O)[C@H](NC(=O)c2cccc(C(F)(F)F)c2)[C@@H](c2ccccc2NC(=O)CCl)c2cnn(-c3ccccc3)c21` (racemic) [Compound I-170], the “% Adduct Formation (MS Emax)” value was “+++ (MS Emax % adduct formation greater than 80.0 and less than or equal to 100.0)”.

For `CCN1C(=O)[C@H](NC(=O)c2cccc(C(F)(F)F)c2)[C@@H](c2cccc(NC(=O)COc3c(F)c(F)cc(F)c3F)c2)c2c(C)nn(-c3ccccc3)c21` (racemic) [Compound I-171], the maximal response (Emax) lay within 0 to 30%.

`C=C(CN1CCOCC1)C(=O)Nc1cccc([C@H]2c3c(C)nn(-c4ccccc4)c3N(CC)C(=O)[C@H]2NC(=O)c2cccc(C(F)(F)F)c2)c1` (racemic) [Compound I-172]: the “% Adduct Formation (MS Emax)” value is “+ (MS Emax % adduct formation greater than or equal to 0.0 and less than or equal to 30.0)”.

The molecule `C#CC(=O)Nc1cccc([C@H]2c3c(C)nn(-c4ccccc4)c3N(CC)C(=O)[C@H]2NC(=O)c2cccc(C(F)(F)F)c2)c1` (racemic) [Compound I-173] showed a maximum response (Emax) of 30 to 80%.

`CCN1C(=O)[C@H](NC(=O)c2cccc(C(F)(F)F)c2)[C@@H](c2ccccc2NS(=O)(=O)CCl)c2cnn(-c3ccccc3)c21` (racemic) [Compound I-175] returned an Emax of 0 to 30%.

For `CCN1C(=O)[C@H](NC(=O)c2cccc(C(F)(F)F)c2)[C@@H](c2ccccc2NC(=O)/C=C/CN2CCOCC2)c2cnn(-c3ccccc3)c21` (racemic) [Compound I-176], the Emax was in the range of 0 to 30%.

`C=C(CN(C)C)C(=O)Nc1ccccc1[C@H]1c2cnn(-c3ccccc3)c2N(CC)C(=O)[C@@H]1NC(=O)c1cccc(C(F)(F)F)c1` (racemic) [Compound I-177] gave an Emax of 30 to 80%.

Consider `CCN1C(=O)[C@H](NC(=O)c2cccc(C(F)(F)F)c2)[C@@H](c2ccccc2NC(=O)/C(C#N)=C/C2CC2)c2cnn(-c3ccccc3)c21` (racemic) [Compound I-179], for which the Emax was in the range of 80 to 100%.

For `C=C(C)C(=O)Nc1ccccc1[C@H]1c2cnn(-c3ccccc3)c2N(CC)C(=O)[C@@H]1NC(=O)c1cccc(C(F)(F)F)c1` (racemic) [Compound I-183], the maximum response (Emax) lay within 0 to 30%.

`CCN1C(=O)[C@@H](NC(=O)c2cccc(C(F)(F)F)c2)[C@@H](c2cccc(NS(=O)(=O)CCl)c2)c2c(C)nn(-c3ccccc3)c21` (racemic) [Compound I-184]: the Emax fell in the range of 0 to 30%.

As for `C=CS(=O)(=O)Nc1cccc([C@H]2c3c(C)nn(-c4ccccc4)c3N(CC)C(=O)[C@H]2NC(=O)c2cccc(C(F)(F)F)c2)c1` (racemic) [Compound I-186], the Emax was 30 to 80%.

`CCN1C(=O)[C@H](NC(=O)c2cccc(C(F)(F)F)c2)[C@@H](c2ccc(F)cc2NC(=O)CC#N)c2cnn(-c3ccccc3)c21` (racemic) [Compound I-187] returned an Emax of 0 to 30%.

In the case of `CCN1C(=O)[C@H](NC(=O)c2cccc(C(F)(F)F)c2)[C@@H](c2ccccc2NC(=O)C2=CCCC2)c2cnn(-c3ccccc3)c21` (racemic) [Compound I-188], the Emax lay in the range of 0 to 30%.

In turn, `C/C=C/C(=O)Nc1ccccc1[C@H]1c2cnn(-c3ccccc3)c2N(CC)C(=O)[C@@H]1NC(=O)c1cccc(C(F)(F)F)c1` (racemic) [Compound I-189] had an Emax of 0 to 30%.

`C=CC(=O)Nc1ccccc1[C@H]1c2cnn(-c3ccccc3)c2N(CC)C(=O)[C@@H]1NC(=O)c1cccc(C(F)(F)F)c1` (racemic) [Compound I-190] showed a maximum response (Emax) of 30 to 80%.

Consider `CCN1C(=O)[C@@H](NC(=O)c2cccc(C(F)(F)F)c2)[C@@H](c2ccccc2NC(=O)CCl)c2c(C)nn(-c3ccccc3)c21` (racemic) [Compound I-191], for which the Emax was in the range of 80 to 100%.

Molecule `CCN1C(=O)[C@@H](NC(=O)c2cccc(C(F)(F)F)c2)[C@@H](c2cccc(NC(=O)/C=C/CN(C)C)c2)c2c(C)nn(-c3ccccc3)c21` (racemic) [Compound I-192] returned an Emax of 0 to 30%.

`CC#CC(=O)Nc1cccc([C@H]2c3c(C)nn(-c4ccccc4)c3N(CC)C(=O)[C@@H]2NC(=O)c2cccc(C(F)(F)F)c2)c1` (racemic) [Compound I-193]: the Emax was in the range of 30 to 80%.

`C#CC(=O)Nc1ccccc1[C@H]1c2cnn(-c3ccccc3)c2N(CC)C(=O)[C@@H]1NC(=O)c1cccc(C(F)(F)F)c1` (racemic) [Compound I-194] came in with a maximal response (Emax) of 80 to 100%.

In turn, `CCN1C(=O)[C@H](NC(=O)c2cccc(C(F)(F)F)c2)[C@@H](c2ccccc2NC(=O)C2=CCC2)c2cnn(-c3ccccc3)c21` (racemic) [Compound I-195] gave an Emax of 0 to 30%.

For the molecule `CCN1C(=O)[C@H](NC(=O)c2cccc(C(F)(F)F)c2)[C@@H](c2ccccc2NC(=O)/C=C/CN(C)C)c2cnn(-c3ccccc3)c21` (racemic) [Compound I-196], the Emax lay within 0 to 30%.

In the case of `CCN1C(=O)[C@H](NC(=O)c2cccc(C(F)(F)F)c2)[C@@H](c2ccccc2NC(=O)C(Cl)Cl)c2cnn(-c3ccccc3)c21` (racemic) [Compound I-198], the Emax is 0 to 30%.
